From PubChem BioAssay AID1963863 (Molecular Pharmacology Branch, DTP, NCI, 2024)
“And” between values parts separate entries of the source, which are not always exact repeats. Identical values can stand only once.

Test system: 931267-113-T-J1-PDC KRAS spheroid with HUVEC/MSC, viability
Experiment: Anticancer human tumor 931267-113-T-J1-PDC patient-derived colon adenocarcinoma cell line growth inhibition [KRAS2]
Settings: for viability, T/C: stronger effect = lower value
Outline: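 KRAS-mutant tumor cells were grown as spheroids with HUVEC endothelial cells and human MSCs as stroma. Targeted agents were tested alone and with KRAS pathway inhibitors. Doses started at or near clinical Cmax, or 10 microM, descending half-log.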

[1] = curve of first compound, second compound 0.1 µM
[2] = curve of first compound, second compound 0.316 µM
[3] = curve of first compound, second compound 1 µM
[4] = curve of first compound, second compound 3.16 µM
[5] = curve of first compound, second compound 10 µM
[6] = second compound 0.1 µM, first compound 0.0316 µM
[7] = second compound 0.1 µM, first compound 0.1 µM
[8] = second compound 0.1 µM, first compound 0.316 µM
[9] = second compound 0.1 µM, first compound 1 µM
[10] = second compound 0.1 µM, first compound 3.16 µM
[11] = second compound 0.1 µM, first compound 10 µM
[12] = second compound 0.316 µM, first compound 0.0316 µM
[13] = second compound 0.316 µM, first compound 0.1 µM
[14] = second compound 0.316 µM, first compound 0.316 µM
[15] = second compound 0.316 µM, first compound 1 µM
[16] = second compound 0.316 µM, first compound 3.16 µM
[17] = second compound 0.316 µM, first compound 10 µM
[18] = second compound 1 µM, first compound 0.0316 µM
[19] = second compound 1 µM, first compound 0.1 µM
[20] = second compound 1 µM, first compound 0.316 µM
[21] = second compound 1 µM, first compound 1 µM
[22] = second compound 1 µM, first compound 3.16 µM
[23] = second compound 1 µM, first compound 10 µM
[24] = second compound 3.16 µM, first compound 0.0316 µM
[25] = second compound 3.16 µM, first compound 0.1 µM
[26] = second compound 3.16 µM, first compound 0.316 µM
[27] = second compound 3.16 µM, first compound 1 µM
[28] = second compound 3.16 µM, first compound 3.16 µM
[29] = second compound 3.16 µM, first compound 10 µM
[30] = second compound 10 µM, first compound 0.0316 µM
[31] = second compound 10 µM, first compound 0.1 µM
[32] = second compound 10 µM, first compound 0.316 µM
[33] = second compound 10 µM, first compound 1 µM
[34] = second compound 10 µM, first compound 3.16 µM
[35] = second compound 10 µM, first compound 10 µM
[36] = second compound 0.1 µM, first compound 0.01 µM
[37] = second compound 0.316 µM, first compound 0.01 µM
[38] = second compound 1 µM, first compound 0.01 µM
[39] = second compound 3.16 µM, first compound 0.01 µM
[40] = second compound 10 µM, first compound 0.01 µM
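Further: compound exposure lasted 7 days before the readout.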
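Wherever viability, T/C is given: 100% = DMSO vehicle control viability.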

| Structure (SMILES) | IC50 [1] [nM] | IC50 [2] [nM] | IC50 [3] [nM] | IC50 [4] [nM] | IC50 [5] [nM] | viability, T/C [6] [%] | viability, T/C [7] [%] | viability, T/C [8] [%] | viability, T/C [9] [%] | viability, T/C [10] [%] | viability, T/C [12] [%] | viability, T/C [13] [%] | viability, T/C [14] [%] | viability, T/C [15] [%] | viability, T/C [18] [%] | viability, T/C [19] [%] | viability, T/C [24] [%] | viability, T/C [25] [%] | viability, T/C [30] [%] | viability, T/C [31] [%] | other results |
| --- | --- | --- | --- | --- | --- | --- | --- | --- | --- | --- | --- | --- | --- | --- | --- | --- | --- | --- | --- | --- | --- |
| CCN1CCN(Cc2ccc(Nc3ncc(F)c(-c4cc(F)c5nc(C)n(C(C)C)c5c4)n3)nc2)CC1 | – | – | – | – | – | – | – | – | – | – | – | – | – | – | – | – | – | – | – | – | viability, T/C (compound 0.00316 µM): 85.5% [middle of 5 runs]; viability, T/C (compound 0.01 µM): 88.8% [middle of 5 runs]; viability, T/C (compound 0.0316 µM): 70.4% [middle of 5 runs]; viability, T/C (compound 0.1 µM): 70% [middle of 5 runs]; viability, T/C (compound 0.316 µM): 65% [middle of 5 runs]; viability, T/C (compound 1 µM): 48.4% [middle of 5 runs]; IC50 (curve of compound): > 1000 nM and 595 nM and 960 nM |
| COc1cc2nccc(Oc3ccc(NC(=O)C4(C(=O)Nc5ccc(F)cc5)CC4)cc3)c2cc1OC + C=CC(=O)N1CCN(c2nc(=O)n(-c3c(C)ccnc3C(C)C)c3nc(-c4c(O)cccc4F)c(F)cc23)C(C)C1 | > 10000 | 3110 | > 10000 | 2580 | 723 | 115 | 96.3 | 91.7 | 104 | 65.1 | 105 | 96.6 | 97.1 | 96.3 | 108 | 115 | 106 | 92.8 | 82.6 | 80.6 | viability, T/C [11]: 69%; viability, T/C [16]: 49.3%; viability, T/C [17]: 48.5%; viability, T/C [20]: 98.4%; viability, T/C [21]: 109%; viability, T/C [22]: 63.7%; viability, T/C [23]: 57.2%; viability, T/C [26]: 98.2%; viability, T/C [27]: 82.3%; viability, T/C [28]: 43%; viability, T/C [29]: 34.4%; viability, T/C [32]: 54.3%; viability, T/C [33]: 58.1%; viability, T/C [34]: 10.7%; viability, T/C [35]: 18.5% |
| Cn1ncnc1[C@H]1c2n[nH]c(=O)c3cc(F)cc(c23)N[C@@H]1c1ccc(F)cc1 + C=CC(=O)N1CCN(c2nc(=O)n(-c3c(C)ccnc3C(C)C)c3nc(-c4c(O)cccc4F)c(F)cc23)C(C)C1 | > 100 | > 100 | > 100 | > 100 | > 100 | 102 | 93 | – | – | – | 98.9 | 72.7 | – | – | 94.6 | 80.8 | 90.3 | 89.8 | 96 | 102 | viability, T/C (second compound 0.1 µM, first compound 0.000316 µM): 106%; viability, T/C (second compound 0.1 µM, first compound 0.001 µM): 98.3%; viability, T/C (second compound 0.1 µM, first compound 0.00316 µM): 81.8%; viability, T/C [36]: 92.3%; viability, T/C (second compound 0.316 µM, first compound 0.000316 µM): 110%; viability, T/C (second compound 0.316 µM, first compound 0.001 µM): 110%; viability, T/C (second compound 0.316 µM, first compound 0.00316 µM): 101%; viability, T/C [37]: 105%; viability, T/C (second compound 1 µM, first compound 0.000316 µM): 117%; viability, T/C (second compound 1 µM, first compound 0.001 µM): 107%; viability, T/C (second compound 1 µM, first compound 0.00316 µM): 93.1%; viability, T/C [38]: 100%; viability, T/C (second compound 3.16 µM, first compound 0.000316 µM): 97.7%; viability, T/C (second compound 3.16 µM, first compound 0.001 µM): 106%; viability, T/C (second compound 3.16 µM, first compound 0.00316 µM): 98.8%; viability, T/C [39]: 85.1%; viability, T/C (second compound 10 µM, first compound 0.000316 µM): 117%; viability, T/C (second compound 10 µM, first compound 0.001 µM): 103%; viability, T/C (second compound 10 µM, first compound 0.00316 µM): 84.3%; viability, T/C [40]: 99.8% |
| COc1cc2nccc(Oc3ccc(NC(=O)C4(C(=O)Nc5ccc(F)cc5)CC4)cc3)c2cc1OC + CNCc1ccccc1-c1csc(C(C)Nc2nc(C)nc3cc(OC)c(OC)cc23)c1 | 3210 | 1770 | < 31.6 | < 31.6 | < 31.6 | 86.3 | 93.1 | 107 | 91 | 50.1 | 85.5 | 86.8 | 81.9 | 72.3 | 45.3 | 52.9 | 0.08 | 0.19 | 0.14 | 0.17 | viability, T/C [11]: 48.1%; viability, T/C [16]: 27.2%; viability, T/C [17]: 21.9%; viability, T/C [20]: 39.5%; viability, T/C [21]: 25.4%; viability, T/C [22]: 0.22%; viability, T/C [23]: 1.76%; viability, T/C [26]: 0.35%; viability, T/C [27]: 0.07%; viability, T/C [28]: 0.04%; viability, T/C [29]: 0.2%; viability, T/C [32]: 0.13%; viability, T/C [33]: 0.12%; viability, T/C [34]: 0.13%; viability, T/C [35]: 0.21% |
| Cn1nccc1Nc1nccc(-c2cc3c(s2)C(C)(C)N(CCN2CCOCC2)C3=O)n1 + CNCc1ccccc1-c1csc(C(C)Nc2nc(C)nc3cc(OC)c(OC)cc23)c1 | 323 | 433 | 88.4 | < 31.6 | < 31.6 | 73.6 | 71.3 | 44.5 | 34.1 | 6.18 | 76.4 | 75.4 | 60.6 | 21.4 | 56.5 | 51 | 0.1 | 0.09 | 0.11 | 0.13 | viability, T/C [11]: 2.96%; viability, T/C [16]: 4.19%; viability, T/C [17]: 1.79%; viability, T/C [20]: 26.6%; viability, T/C [21]: 11.2%; viability, T/C [22]: 0.39%; viability, T/C [23]: 0.15%; viability, T/C [26]: 0.08%; viability, T/C [27]: 0.11%; viability, T/C [28]: 0.04%; viability, T/C [29]: 0.11%; viability, T/C [32]: 0.13%; viability, T/C [33]: 0.11%; viability, T/C [34]: 0.11%; viability, T/C [35]: 0.42% |
| CC(=O)OC12COC1CC(O)C1(C)C(=O)C(O)C3=C(C)C(OC(=O)C(O)C(NC(=O)OC(C)(C)C)c4ccccc4)CC(O)(C(OC(=O)c4ccccc4)C21)C3(C)C (configuration not stated) + CNCc1ccccc1-c1csc(C(C)Nc2nc(C)nc3cc(OC)c(OC)cc23)c1 | > 3160 | > 3160 | > 3160 | < 10 | < 10 | 99.3 | 109 | 98.9 | 82 | 87.8 | 110 | 89.7 | 96.4 | 101 | 105 | 91.3 | 102 | 0.55 | 0.34 | 0.31 | viability, T/C [36]: 88.2%; viability, T/C [37]: 109%; viability, T/C [16]: 113%; viability, T/C [38]: 106%; viability, T/C [20]: 111%; viability, T/C [21]: 89.7%; viability, T/C [22]: 77.4%; viability, T/C [39]: 0.73%; viability, T/C [26]: 0.5%; viability, T/C [27]: 0.41%; viability, T/C [28]: 105%; viability, T/C [40]: 0.33%; viability, T/C [32]: 0.36%; viability, T/C [33]: 0.18%; viability, T/C [34]: 0.93% |
